The values below come from ChEMBL document CHEMBL5528044, “Exploring the Function of (+)-Naltrexone Precursors: Their Activity as TLR4 Antagonists and Potential in Treating Morphine Addiction” (J Med Chem, 2024).

SMILES strings stand for the structures. The source made the active and inactive calls. No cut-off for these calls is given here.

One test deals with T1, Toll-like receptor 4 (Mus musculus, UniProt Q9QUK6).
T1 sequence (Q9QUK6 whole entry): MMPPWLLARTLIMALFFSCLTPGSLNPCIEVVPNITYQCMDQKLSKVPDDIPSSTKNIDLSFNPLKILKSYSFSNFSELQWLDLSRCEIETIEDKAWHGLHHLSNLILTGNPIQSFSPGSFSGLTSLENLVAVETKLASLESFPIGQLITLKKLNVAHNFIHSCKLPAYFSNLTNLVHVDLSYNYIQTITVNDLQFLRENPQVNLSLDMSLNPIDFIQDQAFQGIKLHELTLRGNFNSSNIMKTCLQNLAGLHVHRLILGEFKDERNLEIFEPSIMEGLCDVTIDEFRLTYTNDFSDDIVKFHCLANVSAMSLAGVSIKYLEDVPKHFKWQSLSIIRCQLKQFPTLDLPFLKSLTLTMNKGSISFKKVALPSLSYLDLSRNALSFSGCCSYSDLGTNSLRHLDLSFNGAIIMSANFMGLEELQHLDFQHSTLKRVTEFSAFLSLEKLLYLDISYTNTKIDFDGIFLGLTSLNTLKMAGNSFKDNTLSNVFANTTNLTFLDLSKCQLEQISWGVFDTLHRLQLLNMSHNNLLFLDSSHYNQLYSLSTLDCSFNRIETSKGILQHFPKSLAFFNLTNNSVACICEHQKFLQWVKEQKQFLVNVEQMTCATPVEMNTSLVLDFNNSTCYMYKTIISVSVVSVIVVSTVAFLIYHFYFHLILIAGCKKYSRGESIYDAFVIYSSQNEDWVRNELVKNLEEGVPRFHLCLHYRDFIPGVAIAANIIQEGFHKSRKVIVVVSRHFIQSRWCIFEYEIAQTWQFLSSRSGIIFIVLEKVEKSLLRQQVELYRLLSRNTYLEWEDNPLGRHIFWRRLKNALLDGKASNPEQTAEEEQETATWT
The test is described as follows: Antagonist activity at TLR4 in mouse BV-2 cells assessed as inhibition of LPS-induced NO overproduction incubated for 24 hrs by 2,3-diaminonaphthalene reagent based microplate reader analysis. In kind it is cell-based.

For test [1], the target named is T2, Toll-like receptor 4 (Mus musculus) (UniProt Q9QUK6).
T2 sequence (whole entry): T1 sequence (Q9QUK6 whole entry)
The test is described as follows: Antagonist activity at TLR4 in mouse BV-2 cells assessed as inhibition of LPS-induced TNF-alpha production at 0.01 to 100 uM by ELISA. Format: cell-based. The note with it: dose 0.01-100 µM.

Test [2] concerns the target T2, Toll-like receptor 4 (Mus musculus). Kind of test: Antagonist activity at TLR4 in mouse BV-2 cells assessed as inhibition of LPS-induced NF-kappaB activation at 4 uM incubated for 24 hrs by dual-glo luciferase assay. Format: cell-based.
The target is the same in test [3]. Kind of test: Antagonist activity at TLR4 signaling pathway in mouse BV-2 cells assessed as inhibition of LPS-induced TRIF recruitment at 5 uM incubated for 1 hr by co-immunoprecipitation based Western blot analysis. Format: cell-based. A general note: A western blot detects proteins with antibodies after separation by electrophoresis.
For test [4] the target is unchanged. The test is described as follows: Antagonist activity at TLR4 signaling pathway in mouse BV-2 cells assessed as inhibition of LPS-induced MyD88 recruitment at 5 uM incubated for 1 hr by co-immunoprecipitation based Western blot analysis. Format: cell-based.
Test [5] shares this target. The test is described as follows: Antagonist activity at TLR4 signaling pathway in mouse BV-2 cells assessed as downregulation of LPS-induced IKKalpha phosphorylation at 5 uM incubated for 1 hr by Western blot analysis. In kind it is cell-based.
For test [6] the target is unchanged. Kind of test: Antagonist activity at TLR4 signaling pathway in mouse BV-2 cells assessed as downregulation of LPS-induced IKKbeta phosphorylation at 5 uM incubated for 1 hr by Western blot analysis. Format: cell-based.
For test [7] the target is unchanged. Kind of test: Antagonist activity at TLR4 signaling pathway in mouse BV-2 cells assessed as downregulation of LPS-induced ERK phosphorylation at 5 uM incubated for 1 hr by Western blot analysis. In kind it is cell-based.
Test [8] has the same target. Kind of test: Antagonist activity at TLR4 signaling pathway in mouse BV-2 cells assessed as downregulation of LPS-induced JNK phosphorylation at 5 uM incubated for 1 hr by Western blot analysis. In kind it is cell-based.
The target is the same in test [9]. The test is described as follows: Antagonist activity at TLR4 signaling pathway in mouse BV-2 cells assessed as downregulation of LPS-induced IRF-3 phosphorylation at 5 uM incubated for 1 hr by Western blot analysis. In kind it is cell-based.
In test [10] the test system is Mus musculus. Kind of test: Inhibition of morphine-induced addiction behavior in Balb/c mouse assessed as decrease in locomotor activity at 0.2 mg/kg,ip administrated on day 4 to 10 by open-field test. The note with it: time 7.0 day. Format: functional, organism-based.
Test [11] has as its system Mus musculus. Kind of test: Inhibition of morphine-induced addiction behavior in Balb/c mouse assessed reduction in CPP score at 0.2 mg/kg,ip administrated for 6 consecutive days by conditioned place preference assay. In kind it is functional, organism-based.
Test [12] has as its system Mus musculus. The test is described as follows: Inhibition of chronic morphine-induced microglia activation in Balb/c mouse assessed as reduction in Iba1 expression in brain medial prefrontal cortex region at 0.2 mg/kg,ip administrated for 6 consecutive days by immunofluorescence staining based analysis. In kind it is functional, organism-based.
Test [13] concerns Mus musculus. The test is described as follows: Inhibition of chronic morphine-induced microglia activation in Balb/c mouse assessed as reduction in Iba1 expression in brain ventral tegmental area region at 0.2 mg/kg,ip administrated for 6 consecutive days by immunofluorescence staining based analysis. In kind it is functional, organism-based.
The test system of test [14] is Mus musculus. Kind of test: Inhibition of chronic morphine-induced microglia activation in Balb/c mouse assessed as reduction in Iba1 expression in nucleus accumbens region at 0.2 mg/kg,ip administrated for 6 consecutive days by immunofluorescence staining based analysis. Format: functional, organism-based.
Test [15] deals with Mus musculus. Kind of test: Inhibition of chronic morphine-induced microglia activation in Balb/c mouse assessed as reduction in TNF-alpha mRNA expression in brain medial prefrontal cortex region at 0.2 mg/kg,ip administrated for 6 consecutive days by qPCR analysis. In kind it is functional, organism-based. Background: In qPCR the cycle at which signal appears reflects the starting amount.

For test [16], the system named is Mus musculus. Kind of test: Inhibition of chronic morphine-induced microglia activation in Balb/c mouse assessed as reduction in TNF-alpha mRNA expression in brain ventral tegmental area region at 0.2 mg/kg,ip administrated for 6 consecutive days by qPCR analysis. Format: functional, organism-based.
The test system of test [17] is Mus musculus. Kind of test: Inhibition of chronic morphine-induced microglia activation in Balb/c mouse assessed as reduction in TNF-alpha mRNA expression in brain nucleus accumbens region at 0.2 mg/kg,ip administrated for 6 consecutive days by qPCR analysis. Format: functional, organism-based.
In test [18] the test system is Mus musculus. The test is described as follows: Inhibition of chronic morphine-induced microglia activation in Balb/c mouse assessed as reduction in microglia cell number in brain medial prefrontal cortex region at 0.2 mg/kg,ip administrated for 6 consecutive days by immunofluorescence staining based analysis. Format: functional, organism-based.
Test [19] has as its system Mus musculus. The test is described as follows: Inhibition of chronic morphine-induced microglia activation in Balb/c mouse assessed as reduction in microglia cell number in brain ventral tegmental area region at 0.2 mg/kg,ip administrated for 6 consecutive days by immunofluorescence staining based analysis. In kind it is functional, organism-based.
Test [20] relates to Mus musculus. The test is described as follows: Inhibition of chronic morphine-induced microglia activation in Balb/c mouse assessed as reduction in microglia cell number in brain nucleus accumbens region at 0.2 mg/kg,ip administrated for 6 consecutive days by immunofluorescence staining based analysis. Format: functional, organism-based.

As a reminder, the IC50 is the point on the concentration scale where inhibition reaches its midpoint. For `COc1ccc2c3c1O[C@@H]1C(=O)CC[C@@H]4[C@H](C2)N(C)CC[C@@]314`, at Toll-like receptor 4, the IC50 was over 200 µM.
In the case of `COc1ccc2c3c1O[C@@H]1C(OC)(OC)C(Br)C[C@@H]4[C@H](C2)N(C)CC[C@]341` (some centres not stated), the IC50 on Toll-like receptor 4 was over 200 µM.
The same measure, in the same setting: next, `COc1ccc2c3c1O[C@@H]1C(=O)CC[C@]4(OC(C)=O)[C@H](C2)N(C)CC[C@@]314`: over 200 µM; `COc1ccc2c3c1O[C@@H]1C(OC)(OC)CC[C@@H]4[C@H](C2)N(C)CC[C@]341`: over 200 µM.
For the molecule `COc1ccc2c3c1O[C@@H]1C(=O)C=C[C@@H]4[C@H](C2)N(C)CC[C@@]314`, the IC50 at Toll-like receptor 4 came out at 6.9 µM.
As for `CN1CC[C@@]23c4c5ccc(O)c4O[C@@H]2C(=O)CC[C@]3(O)[C@@H]1C5`, the IC50 at Toll-like receptor 4 came out at 33.5 µM. Moreover, the outcome in test [1], in test [2], in [3], in test [4], in [5] and in [6] was inactive. In addition, the outcome in [7], in test [8] and in [9] was inactive.
In the case of `COC1=CC=C2[C@@H]3Cc4ccc(OC)c5c4[C@]2(CCN3C)[C@@H]1O5`, the IC50 on Toll-like receptor 4 was determined as 197 µM.
Same read-out and setting: the result for `COc1ccc2c(c1O)[C@@]13CCN(C)[C@@H](C2)[C@H]1CC(OC)C(=O)C3` (some centres not stated) reads over 200 µM.
Same read-out and setting: the result for `COc1ccc2c3c1O[C@@H]1C(=O)CC[C@]4(OC(C)=O)[C@H](C2)N(C#N)CC[C@@]314` reads 67.8 µM.
On the same count and under the same terms, the result for `COC1=CC[C@@H]2[C@@H]3Cc4ccc(OC)c5c4[C@]2(CCN3C)[C@@H]1O5` reads over 200 µM; that for `COc1ccc2c3c1O[C@@H]1C(=O)CC[C@]4(O)[C@H](C2)NCC[C@@]314`, over 200 µM.
For `O=C1CC[C@]2(O)[C@@H]3Cc4ccc(O)c5c4[C@]2(CCN3CC2CC2)[C@@H]1O5`, the inhibition result in the test on Mus musculus [10] is “Active”. Besides, the inhibition entry in the test on Mus musculus [11], with Mus musculus [12], in the test on Mus musculus [13], in the test with Mus musculus [14], with Mus musculus [15] and in the test on Mus musculus [16] was “inactive” in each case. Further, the inhibition entry in the test with Mus musculus [17], in the test with Mus musculus [18], with Mus musculus [19] and with Mus musculus [20] was “inactive” in each case.
Regarding `COc1ccc2c3c1O[C@@H]1C(=O)CC[C@]4(O)[C@H](C2)N(C)CC[C@@]314` (single isomer, unassigned), the half-inhibitory concentration (IC50) on Toll-like receptor 4 is over 200 µM. The outcome in [1], in test [2], in test [3], in [4], in [5] and in [6] was inactive. In addition, the result in [7], in test [8] and in [9] was inactive.
With `COC1=C[C@@H]2[C@@H]3Cc4ccc(OC)c(O)c4[C@]2(CCN3C)CC1=O` [SINOMENINE], the IC50 on Toll-like receptor 4 was over 200 µM.
